Assay results published in ChEMBL document CHEMBL1132520, “Antimalarial activity of 3-hydroxyalkyl-2-methylene-propionic acid derivatives” (1999).
Calls of active or inactive are those of the source. The rule behind the calls is not given here.

Assays:
Plasmodium falciparum [1] = experiment: In vitro antimalarial activity for chloroquine-resistant Plasmodium falciparum at a dose of 4 uM/well through Schizonts maturation assay over 24 hr; type: functional
Plasmodium falciparum [2] = experiment: In vitro antimalarial activity for Plasmodium falciparum at 32 uM/well dose at 24 hrs in Schizont maturation assay; type: functional
Plasmodium falciparum [3] = experiment: In vitro inhibition of Plasmodium falciparum at 8 uM/well dose at 72 hrs in total parasite growth assay; type: functional
Plasmodium falciparum [4] = experiment: In vitro inhibition of Plasmodium falciparum at 64 uM/well dose at 72 hrs in total parasite growth assay; type: functional
Plasmodium falciparum [5] = experiment: In vitro antimalarial activity for Plasmodium falciparum at 2 uM/well dose at 24 hrs in Schizont maturation assay; type: functional
Plasmodium falciparum [6] = experiment: In vitro inhibition of Plasmodium falciparum at 32 uM/well dose at 72 hrs in total parasite growth assay; type: functional
Plasmodium falciparum [7] = experiment: In vitro antimalarial activity for chloroquine-resistant Plasmodium falciparum at 1 uM/well dose at 24 hrs in Schizont maturation assay; type: functional
Plasmodium falciparum [8] = experiment: In vitro antimalarial activity for Plasmodium falciparum at 8 uM/well dose at 24 hrs in Schizont maturation assay; type: functional
Plasmodium falciparum [9] = experiment: In vitro antimalarial activity for Plasmodium falciparum at 4 uM/well dose at 24 hrs in Schizont maturation assay; type: functional
Plasmodium falciparum [10] = experiment: In vitro antimalarial activity for chloroquine-resistant Plasmodium falciparum at 32 uM/well dose at 24 hrs in Schizont maturation assay; type: functional
Plasmodium falciparum [11] = experiment: In vitro antimalarial activity for chloroquine-resistant Plasmodium falciparum at 16 uM/well dose at 24 hrs in Schizont maturation assay; type: functional
Plasmodium falciparum [12] = experiment: In vitro antimalarial activity for Plasmodium falciparum at 64 uM/well dose at 24 hrs in Schizont maturation assay; type: functional
Plasmodium falciparum [13] = experiment: In vitro antimalarial activity for Plasmodium falciparum at 1 uM/well dose at 24 hrs in Schizont maturation assay; type: functional
Plasmodium falciparum [14] = experiment: In vitro inhibition of Plasmodium falciparum at 4 uM/well dose at 72 hrs in total parasite growth assay; type: functional
Plasmodium falciparum [15] = experiment: In vitro antimalarial activity for chloroquine-resistant Plasmodium falciparum at 2 uM/well dose at 24 hrs in Schizont maturation assay; type: functional
Plasmodium falciparum [16] = experiment: In vitro inhibition of Plasmodium falciparum at 16 uM/well dose at 72 hrs in total parasite growth assay; type: functional
Plasmodium falciparum [17] = experiment: In vitro inhibition of Plasmodium falciparum at 2 uM/well dose at 72 hrs in total parasite growth assay; type: functional
Plasmodium falciparum [18] = experiment: In vitro inhibition of Plasmodium falciparum at 1.0 uM/well dose at 72 hrs in total parasite growth assay; type: functional
Plasmodium falciparum [19] = experiment: In vitro antimalarial activity for chloroquine-resistant Plasmodium falciparum at 64 uM/well dose at 24 hrs in Schizont maturation assay; type: functional
Plasmodium falciparum [20] = experiment: In vitro antimalarial activity for chloroquine-resistant Plasmodium falciparum at 8 uM/well dose at 24 hrs in Schizont maturation assay; type: functional
Plasmodium falciparum [21] = experiment: In vitro antimalarial activity for Plasmodium falciparum at 16 uM/well dose at 24 hrs in Schizont maturation assay; type: functional
Mus musculus [22] = experiment: In vivo anti-malarial activity against Plasmodium berghei in mice (Mus musculus) at a dose of 80 mg/kg; Active; type: functional, organism-based; parameters: dose 80 mg/kg
Plasmodium falciparum [23] = experiment: In vitro antimalarial activity for Plasmodium falciparum at 100 uM/well dose at 24 hrs in Schizont maturation assay; type: functional
Plasmodium falciparum [24] = experiment: In vitro antimalarial activity for Plasmodium falciparum at 5 uM/well dose at 24 hrs in Schizont maturation assay; type: functional
Plasmodium falciparum [25] = experiment: In vitro antimalarial activity for Plasmodium falciparum at 10 uM/well dose at 24 hrs in Schizont maturation assay; type: functional
Plasmodium falciparum [26] = experiment: In vitro inhibition of Plasmodium falciparum at 50 uM/well dose at 72 hrs in total parasite growth assay; type: functional
Plasmodium falciparum [27] = experiment: In vitro inhibition of Plasmodium falciparum at 10 uM/well dose at 72 hrs in total parasite growth assay; type: functional
Plasmodium falciparum [28] = experiment: In vitro antimalarial activity for Plasmodium falciparum at 0.50 uM/well dose at 24 hrs in Schizont maturation assay; type: functional
Plasmodium falciparum [29] = experiment: In vitro antimalarial activity for Plasmodium falciparum at 50 uM/well dose at 24 hrs in Schizont maturation assay; type: functional
Mus musculus [30] = experiment: Antimalarial activity against Plasmodium berghei evaluated in terms of mean survival time for mice (Mus musculus) at a dose of 40 mg/kg; type: functional
Plasmodium falciparum [31] = experiment: In vitro inhibition of Plasmodium falciparum at 20 uM/well dose at 72 hrs in total parasite growth assay; type: functional
Plasmodium falciparum [32] = experiment: In vitro antimalarial activity for Plasmodium falciparum at 2.5 uM/well dose at 24 hrs in Schizont maturation assay; type: functional
Plasmodium falciparum [33] = experiment: In vitro inhibition of Plasmodium falciparum at 5 uM/well dose at 72 hrs in total parasite growth assay; type: functional
Plasmodium falciparum [34] = experiment: In vitro antimalarial activity for Plasmodium falciparum at 20 uM/well dose at 24 hrs in Schizont maturation assay; type: functional
Mus musculus [35] = experiment: Anti-malarial activity against Plasmodium berghei evaluated in terms of mean survival time for mice (Mus musculus) at a dose of 20 mg/kg; type: functional
Mus musculus [36] = experiment: In vivo anti-malarial activity against Plasmodium berghei in mice (Mus musculus) at a dose of 16 mg/kg; Active; type: functional, organism-based; parameters: dose 16 mg/kg
Plasmodium falciparum [37] = experiment: In vitro inhibition of Plasmodium falciparum at 2.5 uM/well dose at 72 hrs in total parasite growth assay; type: functional
Plasmodium falciparum [38] = experiment: In vitro inhibition of Plasmodium falciparum at 0.25 uM/well dose at 72 hrs in total parasite growth assay; type: functional
Mus musculus [39] = experiment: Antimalarial activity against Plasmodium berghei evaluated in terms of mean survival time for mice (Mus musculus) at a dose of 160 mg/kg; type: functional
Plasmodium falciparum [40] = experiment: In vitro antimalarial activity for Plasmodium falciparum at 0.10 uM/well dose at 24 hrs in Schizont maturation assay; type: functional
Plasmodium falciparum [41] = experiment: In vitro antimalarial activity for Plasmodium falciparum at 500 uM/well dose at 24 hrs in Schizont maturation assay; type: functional
Plasmodium falciparum [42] = experiment: In vitro inhibition of Plasmodium falciparum at 100 uM/well dose at 72 hrs in total parasite growth assay; type: functional
Plasmodium falciparum [43] = experiment: In vitro inhibition of Plasmodium falciparum at 0.5 uM/well dose at 72 hrs in total parasite growth assay; type: functional
Mus musculus [44] = experiment: Antimalarial activity against Plasmodium berghei evaluated in terms of mean survival time for mice (Mus musculus) at a dose of 80 mg/kg; type: functional
Plasmodium falciparum [45] = experiment: In vitro antimalarial activity for Plasmodium falciparum at 0.25 uM/well dose at 24 hrs in Schizont maturation assay; type: functional
Mus musculus [46] = experiment: In vivo antimalarial activity against Plasmodium berghei in mice (Mus musculus); Inactive; type: functional, organism-based
Plasmodium falciparum [47] = experiment: In vitro growth inhibition against Plasmodium falciparum at a dose of 20 uM/well through total parasite growth inhibition assay over 72 hr; type: functional
Plasmodium falciparum [48] = experiment: In vitro inhibition of Plasmodium falciparum at 25 uM/well dose at 72 hrs in total parasite growth assay; type: functional
Plasmodium falciparum [49] = experiment: In vitro inhibition of Plasmodium falciparum at 5 uM/well dose at 72 hrs in total parasite growth assay; Not determined; type: functional

SMILES | inhibition at 1 µM (Plasmodium falciparum [13]) | PGI (Plasmodium falciparum [18]) | inhibition at 100 µM (Plasmodium falciparum [23]) | inhibition at 5 µM (Plasmodium falciparum [24]) | inhibition at 10 µM (Plasmodium falciparum [25]) | PGI (Plasmodium falciparum [26]) | PGI (Plasmodium falciparum [27]) | inhibition at 0.5 µM (Plasmodium falciparum [28]) | inhibition at 50 µM (Plasmodium falciparum [29]) | Mean survival time (Mus musculus [30]) | inhibition at 2.5 µM (Plasmodium falciparum [32]) | PGI (Plasmodium falciparum [33]) | inhibition at 20 µM (Plasmodium falciparum [34]) | Mean survival time (Mus musculus [35]) | PGI (Plasmodium falciparum [37]) | PGI (Plasmodium falciparum [38]) | inhibition at 0.1 µM (Plasmodium falciparum [40]) | PGI (Plasmodium falciparum [42]) | PGI (Plasmodium falciparum [43]) | inhibition at 0.25 µM (Plasmodium falciparum [45]) | also measured
CCN(CC)CCCC(C)Nc1ccnc2cc(Cl)ccc12.O=P(O)(O)O.O=P(O)(O)O (configuration not stated) [CHLOROQUINE PHOSPHATE] | 0% | 16.7% | – | – | – | – | – | – | – | – | – | – | – | – | – | – | – | – | – | – | inhibition at 4 µM (Plasmodium falciparum [1]): 39.4%; inhibition at 32 µM (Plasmodium falciparum [2]): 100%; PGI (Plasmodium falciparum [3]): 100%; PGI (Plasmodium falciparum [4]): 100%; inhibition at 2 µM (Plasmodium falciparum [5]): 16%; PGI (Plasmodium falciparum [6]): 100%; inhibition at 1 µM (Plasmodium falciparum [7]): 0%; inhibition at 8 µM (Plasmodium falciparum [8]): 86.8%; inhibition at 4 µM (Plasmodium falciparum [9]): 39.4%; inhibition at 32 µM (Plasmodium falciparum [10]): 100%; inhibition at 16 µM (Plasmodium falciparum [11]): 100%; inhibition at 64 µM (Plasmodium falciparum [12]): 100%; PGI (Plasmodium falciparum [14]): 91.7%; inhibition at 2 µM (Plasmodium falciparum [15]): 16%; PGI (Plasmodium falciparum [16]): 100%; PGI (Plasmodium falciparum [17]): 58.3%; inhibition at 64 µM (Plasmodium falciparum [19]): 100%; inhibition at 8 µM (Plasmodium falciparum [20]): 86.8%; inhibition at 16 µM (Plasmodium falciparum [21]): 100%
C=C(C#N)C(O)c1cccnc1 (configuration not stated) | 93% | 77.5% | 100% | 100% | 100% | 100% | 97.5% | 50% | 100% | 8.8 days | 100% | 90% | 100% | 6.4 days | 82.5% | 20% | 0% | 100% | 55% | 12% | Activity (Mus musculus [22]): Active; PGI (Plasmodium falciparum [31]): 100%; Activity (Mus musculus [36]): Active; Mean survival time (Mus musculus [39]): 15.2 days; inhibition at 500 µM (Plasmodium falciparum [41]): 100%; Mean survival time (Mus musculus [44]): 13.4 days
COC(=O)C(CNC(C)C)C(O)c1ccc([N+](=O)[O-])cc1 (configuration not stated) | 14% | 10% | 100% | 29% | 29% | 100% | 42.5% | 0% | 100% | 8.2 days | 25% | 25% | 80% | 7 days | 15% | 0% | 0% | 100% | 0% | 0% | Activity (Mus musculus [46]): inactive; PGI (Plasmodium falciparum [47]): 92.5%; Mean survival time (Mus musculus [39]): 11.8 days; Mean survival time (Mus musculus [44]): 9.8 days
C=C(C#N)C(O)c1ccccc1 (configuration not stated) | 25.7% | 25.7% | 100% | 65.7% | 80% | – | 80% | 8.6% | – | – | 62.8% | – | 85% | – | 62.8% | – | 0% | 100% | 8.6% | 0% | PGI (Plasmodium falciparum [48]): 85%; PGI (Plasmodium falciparum [49]): 65.7%
